Drawing on patent US10526316B2, “Quinoxaline and pyridopyrazine derivatives as PI3Kβ inhibitors” (Janssen Pharmaceutica NV, priority 2015, dated 2020), this text covers Kd and IC50 for 20 compounds.

Experiment [1] has as its target T1, PI3Kβ (Homo sapiens, UniProt P42338).
T1 construct: purchased DiscoveRx Corporation, San Diego (contract service, KINOMEscan)
Put plainly: Enzyme binding assay (KINOMEscan, DiscoveRx). The settings on record: PIK3Cβ_h, read-out: Kd PIK3Cβ_h. As to the method:
(§1) Enzyme Binding Assays (KINOMEscan®)
Kinase enzyme binding affinities of compounds disclosed herein were determined using the KINOMEscan technology performed by DiscoveRx Corporation, San Diego, Calif., USA (www.kinomescan.com). Table A reports the obtained Kd values (nM), with the Kd being the inhibitor binding constant: […]

For experiment [2], the target named is T2, PI3Kδ (Homo sapiens, UniProt O00329).
T2 construct: purchased DiscoveRx Corporation, San Diego (contract service, KINOMEscan)
T2 sequence (O00329 1-1044): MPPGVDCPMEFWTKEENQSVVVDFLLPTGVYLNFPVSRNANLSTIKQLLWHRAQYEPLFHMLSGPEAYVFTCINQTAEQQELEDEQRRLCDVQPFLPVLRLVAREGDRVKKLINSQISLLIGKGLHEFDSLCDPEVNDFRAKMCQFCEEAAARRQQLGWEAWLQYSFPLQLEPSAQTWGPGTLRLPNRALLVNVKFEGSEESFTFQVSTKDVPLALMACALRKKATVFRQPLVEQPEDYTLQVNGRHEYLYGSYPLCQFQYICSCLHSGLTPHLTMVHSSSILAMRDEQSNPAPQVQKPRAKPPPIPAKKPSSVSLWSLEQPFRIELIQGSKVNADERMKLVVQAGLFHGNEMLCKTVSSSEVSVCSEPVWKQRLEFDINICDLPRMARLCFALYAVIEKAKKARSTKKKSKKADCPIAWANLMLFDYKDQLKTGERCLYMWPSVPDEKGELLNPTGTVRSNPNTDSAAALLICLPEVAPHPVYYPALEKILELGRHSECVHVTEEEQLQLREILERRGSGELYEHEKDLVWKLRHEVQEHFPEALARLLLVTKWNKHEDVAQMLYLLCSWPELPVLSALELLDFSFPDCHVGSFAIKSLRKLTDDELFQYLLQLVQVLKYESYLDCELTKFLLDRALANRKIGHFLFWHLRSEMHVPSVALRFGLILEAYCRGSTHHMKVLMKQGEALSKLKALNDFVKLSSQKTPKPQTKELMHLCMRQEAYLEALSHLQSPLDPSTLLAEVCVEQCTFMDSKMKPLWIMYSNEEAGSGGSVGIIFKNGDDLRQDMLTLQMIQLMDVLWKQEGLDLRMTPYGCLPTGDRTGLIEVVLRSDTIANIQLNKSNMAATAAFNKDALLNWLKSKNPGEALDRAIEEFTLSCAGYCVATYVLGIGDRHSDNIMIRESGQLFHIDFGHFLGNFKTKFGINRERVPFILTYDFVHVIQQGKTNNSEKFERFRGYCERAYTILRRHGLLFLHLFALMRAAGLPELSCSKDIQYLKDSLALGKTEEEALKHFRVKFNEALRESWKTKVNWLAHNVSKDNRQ
Kind of experiment: Enzyme binding assay (KINOMEscan, DiscoveRx). The settings on record: PIK3Cδ_h. As to the method: as §1
(§2) Kinase enzyme binding affinities of compounds disclosed herein were determined using the KINOMEscan technology performed by DiscoveRx Corporation, San Diego, Calif., USA (www.kinomescan.com).

The target in experiment [3] is T3, kinase enzymes (Homo sapiens, UniProt P42336).
T3 construct: purchased DiscoveRx Corporation, San Diego (contract service, KINOMEscan)
Kind of experiment: Enzyme binding assay (KINOMEscan, DiscoveRx), further kinases of Table A. The settings on record: PIK3Cα_h. As to the method: as §1, §2

The target in experiment [4] is T4, kinase enzymes (Homo sapiens, UniProt P42345).
T4 construct: purchased DiscoveRx Corporation, San Diego (contract service, KINOMEscan)
Described as above. The settings on record: MTOR_h. The method, then: as §1, §2

In experiment [5] the target is T5, kinase enzymes (Homo sapiens, UniProt P48736).
T5 construct: purchased DiscoveRx Corporation, San Diego (contract service, KINOMEscan)
Described as above. The settings on record: PIK3Cγ_h. The method, then: as §1, §2

For experiment [6], the system named is Akt phosphorylated at Thr308 in PC-3 cells. Put plainly: Cellular assay: phosphorylation of Akt at Thr308 in PC-3 cells (MSD ELISA). Format: cell-based. The settings on record: PC-3 cells, 60 min compound incubation, MSD ELISA, read-out: IC50 pAkt_Thr308. The method, then:
(§3) Cellular activity of PI3KP inhibitors was determined by quantifying the phosphorylation of Akt in PC-3 cells. Akt phosphorylated at Ser473 and Thr308 were measured using an enzyme-linked immunosorbent assay (ELISA; Meso Scale Discovery (MSD), Gaithersburg. Md.) and specific primary antibodies from MSD.
(§4) On day 2, compound or DMSO (0.3%) was added and cells were further incubated for 60 min at 37° C. 5% CO2 in a total volume of 100 μl of medium.
(§5) The phosphoprotein assay was executed according to vendor instructions in the Phospho-Akt (Ser473) Assay Whole Cell Lysate Kit (MSD # K15100D-3) and the Phospho-Akt (Thr308) Assay Whole Cell Lysate Kit (MSD # K151DYD-3) using the lysis, blocking and wash buffer provided.
(§6) Briefly, at the end of the cell treatment period, media were removed by aspiration and adherent cells were lysed in 50 μl ice-cold lysis buffer. MSD plates are supplied pre-coated with capture antibodies for Phospho-Akt (Ser473 and Thr308). After blocking, lysates from tissue culture plates were added and plates were washed. Then, a solution containing the detection antibody (anti-total Akt conjugated with an electrochemiluminescent compound-MSD Sulfo-tag label) was added. The signals were detected using an MSD SECTOR Imager 6000 and are proportional to the phospho-Akt titres.
(§7) Data were processed. […] From these concentration-response curves, the IC50 values were calculated. Five concentrations were used for curve fitting.

The subject of experiment [7] is Akt phosphorylated at Ser473 in PC-3 cells. Kind of experiment: Cellular assay: phosphorylation of Akt at Ser473 in PC-3 cells (MSD ELISA). Format: cell-based. The settings on record: PC-3 cells, 60 min compound incubation, MSD ELISA, read-out: IC50 pAkt_S473. The method, then: as §3, §4, §5, §6, §7
Background: In an ELISA, binding on a coated surface is turned into a signal by an enzyme label.

Like-named read-outs stand apart in the source and are kept apart here.

T1 sequence (P42338 whole entry): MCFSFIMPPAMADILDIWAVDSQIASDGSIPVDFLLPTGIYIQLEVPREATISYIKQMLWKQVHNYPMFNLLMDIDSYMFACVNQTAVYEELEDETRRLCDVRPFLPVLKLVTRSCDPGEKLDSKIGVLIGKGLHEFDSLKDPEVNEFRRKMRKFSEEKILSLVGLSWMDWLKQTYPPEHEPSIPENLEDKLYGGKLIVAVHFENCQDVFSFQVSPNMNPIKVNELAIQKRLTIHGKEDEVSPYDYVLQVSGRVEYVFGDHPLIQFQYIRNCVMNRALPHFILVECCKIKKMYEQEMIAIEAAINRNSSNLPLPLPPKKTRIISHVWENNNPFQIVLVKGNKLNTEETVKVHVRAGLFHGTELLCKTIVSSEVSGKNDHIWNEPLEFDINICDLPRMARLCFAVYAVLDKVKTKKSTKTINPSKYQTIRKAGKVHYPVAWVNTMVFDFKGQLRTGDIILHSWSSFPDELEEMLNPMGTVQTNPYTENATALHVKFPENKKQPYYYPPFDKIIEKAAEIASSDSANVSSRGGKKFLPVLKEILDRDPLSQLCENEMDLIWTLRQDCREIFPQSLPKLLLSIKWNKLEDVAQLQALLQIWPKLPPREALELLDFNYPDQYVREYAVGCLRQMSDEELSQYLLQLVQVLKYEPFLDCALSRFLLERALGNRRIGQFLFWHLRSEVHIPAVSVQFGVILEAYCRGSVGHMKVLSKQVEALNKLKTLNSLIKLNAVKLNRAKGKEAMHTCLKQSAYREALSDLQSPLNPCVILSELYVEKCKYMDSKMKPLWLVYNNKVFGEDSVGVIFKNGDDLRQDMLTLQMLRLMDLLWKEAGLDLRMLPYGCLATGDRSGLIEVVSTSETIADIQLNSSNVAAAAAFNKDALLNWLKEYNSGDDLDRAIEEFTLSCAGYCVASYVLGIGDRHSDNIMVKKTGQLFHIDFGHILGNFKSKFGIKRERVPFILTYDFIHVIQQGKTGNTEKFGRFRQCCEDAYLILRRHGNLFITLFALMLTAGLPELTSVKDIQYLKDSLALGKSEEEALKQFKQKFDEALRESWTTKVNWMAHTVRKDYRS
T3 sequence (P42336 whole entry): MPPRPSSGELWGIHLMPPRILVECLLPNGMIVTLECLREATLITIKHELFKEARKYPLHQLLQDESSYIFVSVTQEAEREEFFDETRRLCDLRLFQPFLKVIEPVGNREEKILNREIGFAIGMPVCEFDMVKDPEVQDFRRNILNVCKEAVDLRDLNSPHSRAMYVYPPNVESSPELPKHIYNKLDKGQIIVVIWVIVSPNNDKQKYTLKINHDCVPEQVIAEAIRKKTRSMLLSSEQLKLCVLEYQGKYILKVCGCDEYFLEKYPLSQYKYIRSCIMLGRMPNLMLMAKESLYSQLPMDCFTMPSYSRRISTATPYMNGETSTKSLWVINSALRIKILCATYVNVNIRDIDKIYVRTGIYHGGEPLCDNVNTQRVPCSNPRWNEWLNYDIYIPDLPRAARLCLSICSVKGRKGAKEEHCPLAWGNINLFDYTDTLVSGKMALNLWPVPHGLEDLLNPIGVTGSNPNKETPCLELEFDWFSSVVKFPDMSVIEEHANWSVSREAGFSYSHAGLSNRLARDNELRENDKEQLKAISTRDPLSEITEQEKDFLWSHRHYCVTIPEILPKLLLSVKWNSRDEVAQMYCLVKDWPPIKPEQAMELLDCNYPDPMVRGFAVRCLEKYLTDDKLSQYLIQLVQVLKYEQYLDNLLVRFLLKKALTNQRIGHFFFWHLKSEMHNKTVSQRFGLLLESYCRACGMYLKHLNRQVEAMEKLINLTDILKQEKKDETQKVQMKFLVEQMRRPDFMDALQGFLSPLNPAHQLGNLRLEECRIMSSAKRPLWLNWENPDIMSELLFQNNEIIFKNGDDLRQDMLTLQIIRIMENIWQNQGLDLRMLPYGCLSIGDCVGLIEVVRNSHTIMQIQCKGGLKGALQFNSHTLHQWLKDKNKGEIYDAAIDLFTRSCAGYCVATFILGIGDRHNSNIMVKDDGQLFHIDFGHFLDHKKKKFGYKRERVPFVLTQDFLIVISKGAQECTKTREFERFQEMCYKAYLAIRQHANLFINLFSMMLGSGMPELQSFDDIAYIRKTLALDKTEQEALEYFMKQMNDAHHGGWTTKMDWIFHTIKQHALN
T5 sequence (P48736 whole entry): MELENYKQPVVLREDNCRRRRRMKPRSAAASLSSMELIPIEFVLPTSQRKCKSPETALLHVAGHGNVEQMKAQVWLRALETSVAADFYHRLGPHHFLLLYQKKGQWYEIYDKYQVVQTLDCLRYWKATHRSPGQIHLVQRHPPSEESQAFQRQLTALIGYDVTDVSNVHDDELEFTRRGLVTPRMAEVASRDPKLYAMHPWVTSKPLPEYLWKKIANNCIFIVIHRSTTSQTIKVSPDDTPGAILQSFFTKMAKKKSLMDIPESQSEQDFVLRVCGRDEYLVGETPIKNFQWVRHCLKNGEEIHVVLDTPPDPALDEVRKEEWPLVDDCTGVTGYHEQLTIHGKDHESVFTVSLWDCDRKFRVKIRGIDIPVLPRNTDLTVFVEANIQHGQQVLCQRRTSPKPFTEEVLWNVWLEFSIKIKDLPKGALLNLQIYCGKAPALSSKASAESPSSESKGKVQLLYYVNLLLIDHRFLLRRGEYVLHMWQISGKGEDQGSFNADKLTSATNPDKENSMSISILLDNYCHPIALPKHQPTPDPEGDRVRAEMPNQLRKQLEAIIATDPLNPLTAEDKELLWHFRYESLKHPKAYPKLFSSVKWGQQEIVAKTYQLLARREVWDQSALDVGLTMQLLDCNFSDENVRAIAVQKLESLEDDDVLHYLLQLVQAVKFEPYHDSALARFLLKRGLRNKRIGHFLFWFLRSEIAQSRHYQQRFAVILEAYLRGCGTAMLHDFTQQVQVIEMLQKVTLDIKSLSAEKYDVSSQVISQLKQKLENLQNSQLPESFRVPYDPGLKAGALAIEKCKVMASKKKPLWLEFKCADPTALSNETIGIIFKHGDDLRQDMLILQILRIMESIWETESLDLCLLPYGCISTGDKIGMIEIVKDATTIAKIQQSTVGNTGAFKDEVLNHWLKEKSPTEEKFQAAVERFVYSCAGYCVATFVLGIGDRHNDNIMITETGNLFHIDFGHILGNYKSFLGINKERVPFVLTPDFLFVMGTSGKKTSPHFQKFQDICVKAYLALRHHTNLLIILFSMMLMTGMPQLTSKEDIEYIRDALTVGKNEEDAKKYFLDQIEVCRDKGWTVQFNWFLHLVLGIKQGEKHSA

`CN[C@H]1CCN(C(=O)c2cc(C(C)Nc3cc(F)c(F)c(F)c3)c3nc(N4CCOCC4)cnc3c2)C1` (some centres unmarked) [Compound 297]: the Kd is 0.3 nM in experiment [1]; 110 nM in experiment [2]; 1860 nM in experiment [3]; over 30200 nM in experiment [4]; 1950 nM in experiment [5]. The IC50 in experiment [6] (Homo sapiens, PC-3, 1 h) was determined as 20 nM.

Take `O=C(NCCO)c1cc(N2CCC2c2ccc(F)cc2)c2nc(N3CCOCC3)cnc2c1` (single isomer, unassigned) [Compound 391b]: the Kd in experiment [1] was 19500 nM; in experiment [2] it was over 30200 nM; in experiment [3] it was over 30200 nM; in experiment [4] it was over 30200 nM; in experiment [5], over 30200 nM.

Turning to `CN[C@H]1CCN(C(=O)c2cc(C(C)Nc3ccc(F)c(F)c3)c3nc(N4CCOCC4)cnc3c2)C1` (single isomer, unassigned) [Compound 365b], the Kd is 251 nM in experiment [1]; 4170 nM in experiment [2]; 15500 nM in experiment [3]; over 30200 nM in experiment [4]; 22900 nM in experiment [5].

In the case of `CC(Nc1cc(F)cc(F)c1)c1cc(C(=O)N(C)CCN(C)C)cc2ncc(N3CCOCC3)nc12` (single isomer, unassigned) [Compound 182], the Kd was 0.3 nM in experiment [1]; 32 nM in experiment [2]; 126 nM in experiment [3]; over 30200 nM in experiment [4]; 912 nM in experiment [5]. In addition, the IC50 in experiment [7] was found to be 1 nM.

As to `CN(Cc1cc(F)cc(F)c1)c1cc(C(=O)O)cc2ncc(N3CCOCC3)nc12` [Compound 291], the dissociation constant (Kd) in experiment [1] was found to be 407 nM; in experiment [2], 2820 nM; in experiment [3], 550 nM; in experiment [4] it was 10200 nM; in experiment [5], 513 nM.

For the compound `O=C(c1cc(NCc2cc(F)cc(F)c2)c2nc(N3CCOCC3)cnc2c1)N1CCCNCC1` [Compound 351], the Kd in experiment [1] is 21 nM; in experiment [2], 1700 nM; in experiment [3], 2510 nM; in experiment [4], over 30200 nM; in experiment [5] it was 2140 nM.

Turning to `CC(Oc1ccc(F)c(F)c1)c1cc(C(=O)N2CC[C@H](N(C)C)C2)cc2ncc(N3CCOCC3)nc12` (single isomer, unassigned) [Compound 363b], the Kd in experiment [1] is 1290 nM; in experiment [2], 17000 nM; in experiment [3] it was 31600 nM; in experiment [4], 27500 nM; in experiment [5], over 30200 nM.

Turning to `CC(Nc1cc(F)c(F)c(F)c1)c1cc(C(=O)N2CCCN(C(C)C)CC2)cc2ncc(N3CCOCC3)nc12` (single isomer, unassigned) [Compound 388a], the equilibrium dissociation constant (Kd) in experiment [1] is 933 nM; in experiment [2], over 30200 nM; in experiment [3] it was over 30200 nM; in experiment [4] it was over 30200 nM; in experiment [5] it was over 30200 nM.

Take `CC(C)NCCNC(=O)c1cc(C(C)Oc2cccc(F)c2)c2nc(N3CCOCC3)cnc2c1` (single isomer, unassigned) [Compound 314b]: the Kd was 2 nM in experiment [1]; 1000 nM in experiment [2]; 8910 nM in experiment [3]; over 30200 nM in experiment [4]; 16600 nM in experiment [5]. Moreover, the IC50 in experiment [7] came out at 191 nM.

As for `CC(C)NCCNC(=O)c1cc(NCc2cc(F)cc(F)c2)c2nc(N3CCOCC3)cnc2c1` [Compound 342], the Kd stood at 9 nM in experiment [1]; 1000 nM in experiment [2]; 3800 nM in experiment [3]; 16600 nM in experiment [4]; 26900 nM in experiment [5].

With `CC(C)NCCNC(=O)c1cc(C(C)Oc2ccc(F)c(F)c2)c2nc(N3CCOCC3)cnc2c1` (single isomer, unassigned) [Compound 286b], the Kd was 2 nM in experiment [1]; 355 nM in experiment [2]; 6030 nM in experiment [3]; over 30200 nM in experiment [4]; 16200 nM in experiment [5]. Further, the IC50 in experiment [6] was 204 nM.

Consider `COC(=O)c1cc(C(C)Nc2cc(F)cc(Cl)c2)c2nc(N3CCOCC3)cnc2c1` (centres unmarked) [Compound 264], for which the values for the Kd in experiment [1] and in experiment [4] were 52 nM and over 30200 nM, respectively. The IC50 in experiment [7] was over 513 nM.

Take `C[C@@H](Nc1cccc(F)c1)c1cc(C(=O)NCCO)cc2ncc(N3CCOCC3)nc12` [Compound 117]: the IC50 was 49 nM in experiment [7] (Homo sapiens, PC-3, 1 h) and 44 nM in experiment [6] (Homo sapiens, PC-3, 1 h).

In the case of `CNCCNC(=O)c1cc(C(C)Oc2ccc(Cl)c(F)c2)c2nc(N3CCOCC3)cnc2c1` (centres unmarked) [Compound 380a], the Kd came out at 1050 nM in experiment [1], 7240 nM in experiment [2], 9120 nM in experiment [3] and 19100 nM in experiment [4].

For the compound `O=C(NCCO)c1cc(N2CCC2c2ccc(F)cc2)c2nc(N3CCOCC3)cnc2c1` (single isomer, unassigned) [Compound 391a], the Kd in experiment [1] is 10700 nM; in experiment [2], over 30200 nM; in experiment [3] it was over 30200 nM; in experiment [4] it was 17000 nM; in experiment [5], over 30200 nM.

Regarding `Cc1ccc(F)cc1CNc1cc(C(=O)NCCO)cc2ncc(N3CCOCC3)nc12` [Compound 343], the Kd in experiment [1] is 22 nM; in experiment [3], 2190 nM; in experiment [4], over 10000 nM. The IC50 is 389 nM in experiment [7] (Homo sapiens, PC-3, 1 h) and 178 nM in experiment [6] (Homo sapiens, PC-3, 1 h).

In the case of `CNCCN(C)C(=O)c1cc(C(C)Oc2cc(F)c(F)c(F)c2)c2nc(N3CCOCC3)cnc2c1` (single isomer, unassigned) [Compound 379b], the Kd in experiment [1] was 1260 nM; in experiment [2] it was over 30200 nM; in experiment [3], over 30200 nM; in experiment [4], over 30200 nM; in experiment [5], over 30200 nM.

As for `CN(Cc1cc(F)cc(F)c1)c1cc(C(=O)N2CCNC(C(F)(F)F)C2)cc2ncc(N3CCOCC3)nc12` (single isomer, unassigned) [Compound 319a], the Kd in experiment [1] was 200 nM; in experiment [2], 2820 nM; in experiment [3], 9120 nM; in experiment [4], over 30200 nM; in experiment [5], over 30200 nM.

On to `CC(C)NCCN(C)C(=O)c1cc(N(C)Cc2cc(F)cc(F)c2)c2nc(N3CCOCC3)cnc2c1` [Compound 390], for which the Kd was 78 nM in experiment [1]; 3240 nM in experiment [2]; 16600 nM in experiment [3]; over 30200 nM in experiment [4]; 22400 nM in experiment [5].

For the compound `CC(Nc1ccc(F)c(F)c1)c1cc(C(=O)N2CC[C@@H](O)C2)cc2ncc(N3CCOCC3)nc12` (single isomer, unassigned) [Compound 300b], the Kd in experiment [1] was 537 nM; in experiment [2] it was 23400 nM; in experiment [3], 24000 nM; in experiment [4] it was over 30200 nM; in experiment [5] it was over 30200 nM.

As a reminder, the Kd is a measure of binding affinity in units of concentration. The IC50 is the midpoint of a concentration-inhibition curve.
